# Results: PubChem BioAssay (NCI)
# Several values for one entry are separate records, joined by “and”; a condition that tells them apart may be missing. Identical values can stand only once.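 Step 1: Grow cells in 96-well plates. Step 2: Expose to compound for 48 hours at 5 concentrations. Step 3: Interpolate endpoints linearly; if unreached, use highest concentration. GI50 = concentration required for 50% inhibition of growth. TGI is the concentration that stops growth completely.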
# Columns and labels:
# Test in all cases: inhibition of tumour cell growth, NCI panel, 48 h
# 786-0 renal = system: 786-0 renal
# A498 renal = system: A498 renal
# A549 NSCLC = system: A549 NSCLC
# ACHN renal = system: ACHN renal
# BT-549 breast = system: BT-549 breast
# CAKI-1 renal = system: CAKI-1 renal
# CCRF-CEM leukemia = system: CCRF-CEM leukemia
# COLO 205 colon = system: COLO 205 colon
# DU-145 prostate = system: DU-145 prostate
# EKVX NSCLC = system: EKVX NSCLC
# HCC-2998 colon = system: HCC-2998 colon
# HCT-116 colon = system: HCT-116 colon
# HCT-15 colon = system: HCT-15 colon
# HL-60(TB) leukemia = system: HL-60(TB) leukemia
# HOP-62 NSCLC = system: HOP-62 NSCLC
# HOP-92 NSCLC = system: HOP-92 NSCLC
# HS 578T breast = system: HS 578T breast
# HT29 colon = system: HT29 colon
# IGROV1 ovarian = system: IGROV1 ovarian
# K-562 leukemia = system: K-562 leukemia
# KM12 colon = system: KM12 colon
# LOX IMVI melanoma = system: LOX IMVI melanoma
# M14 melanoma = system: M14 melanoma
# MALME-3M melanoma = system: MALME-3M melanoma
# MCF7 breast = system: MCF7 breast
# MDA-MB-231 breast = system: MDA-MB-231 breast
# MDA-MB-435 = system: MDA-MB-435
# MOLT-4 leukemia = system: MOLT-4 leukemia
# NCI-H226 lung = system: NCI-H226 lung
# NCI-H23 lung = system: NCI-H23 lung
# NCI-H460 lung = system: NCI-H460 lung
# NCI-H522 lung = system: NCI-H522 lung
# NCI/ADR-RES ovarian = system: NCI/ADR-RES ovarian
# OVCAR-3 ovarian = system: OVCAR-3 ovarian
# OVCAR-4 ovarian = system: OVCAR-4 ovarian
# OVCAR-5 ovarian = system: OVCAR-5 ovarian
# OVCAR-8 ovarian = system: OVCAR-8 ovarian
# PC-3 prostate = system: PC-3 prostate
# RPMI-8226 leukemia = system: RPMI-8226 leukemia
# RXF 393 renal = system: RXF 393 renal
# SF-268 CNS = system: SF-268 CNS
# SF-295 CNS = system: SF-295 CNS
# SF-539 CNS = system: SF-539 CNS
# SK-MEL-2 melanoma = system: SK-MEL-2 melanoma
# SK-MEL-28 melanoma = system: SK-MEL-28 melanoma
# SK-MEL-5 melanoma = system: SK-MEL-5 melanoma
# SK-OV-3 ovarian = system: SK-OV-3 ovarian
# SN12C renal = system: SN12C renal
# SNB-19 CNS = system: SNB-19 CNS
# SNB-75 CNS = system: SNB-75 CNS
# SR leukemia = system: SR leukemia
# SW-620 colon = system: SW-620 colon
# T-47D breast = system: T-47D breast
# TK-10 renal = system: TK-10 renal
# U251 CNS = system: U251 CNS
# UACC-257 melanoma = system: UACC-257 melanoma
# UACC-62 melanoma = system: UACC-62 melanoma
# UO-31 renal = system: UO-31 renal
smiles,measurement,setting,value
CC[C@]12C=CCN3CC[C@]4(C(=C(C(=O)OC)C1)Nc1cc5c(cc14)[C@@H]1[C@H](O5)[C@@H](O)[C@@]4(CC)CC(C(=O)OC)=C5Nc6ccccc6[C@@]56CCN1[C@@H]46)[C@@H]32,GI50,786-0 renal,0.252 µM and 0.383 µM
same,TGI,786-0 renal,10 µM and 33.6 µM
same,GI50,A498 renal,0.0729 µM and 0.283 µM
same,TGI,A498 renal,0.788 µM and 1.17 µM
same,GI50,A549 NSCLC,1.2 µM and 0.875 µM
same,TGI,A549 NSCLC,12.7 µM and > 100 µM
same,GI50,ACHN renal,0.189 µM and 0.275 µM
same,TGI,ACHN renal,2.86 µM and 1.79 µM
same,GI50,BT-549 breast,0.913 µM and 2.49 µM
same,TGI,BT-549 breast,25 µM and > 100 µM
same,GI50,CAKI-1 renal,0.0819 µM and 0.268 µM
same,TGI,CAKI-1 renal,8.09 µM and 37.7 µM
same,GI50,CCRF-CEM leukemia,0.238 µM and 0.345 µM
same,TGI,CCRF-CEM leukemia,25 µM and > 100 µM
same,GI50,COLO 205 colon,0.0695 µM
same,TGI,COLO 205 colon,2.78 µM
same,GI50,DU-145 prostate,1.59 µM and 1.77 µM
same,TGI,DU-145 prostate,25 µM and 10.7 µM
same,GI50,EKVX NSCLC,0.927 µM and 0.748 µM
same,TGI,EKVX NSCLC,25 µM and 33.8 µM
same,GI50,HCC-2998 colon,0.0292 µM and 0.0366 µM
same,TGI,HCC-2998 colon,2.63 µM and 1.26 µM
same,GI50,HCT-116 colon,0.216 µM and 0.341 µM
same,TGI,HCT-116 colon,2.59 µM and 1.65 µM
same,GI50,HCT-15 colon,0.0964 µM and 0.26 µM
same,TGI,HCT-15 colon,3.37 µM and 1.42 µM
same,GI50,HL-60(TB) leukemia,0.134 µM and 0.269 µM
same,TGI,HL-60(TB) leukemia,9.05 µM and 1.91 µM
same,GI50,HOP-62 NSCLC,0.319 µM
same,TGI,HOP-62 NSCLC,> 100 µM
same,GI50,HOP-92 NSCLC,0.114 µM and 0.138 µM
same,TGI,HOP-92 NSCLC,12.4 µM and 9.48 µM
same,GI50,HS 578T breast,0.344 µM and 0.218 µM
same,TGI,HS 578T breast,25 µM and > 100 µM
same,GI50,HT29 colon,0.13 µM and 0.186 µM
same,GI50,IGROV1 ovarian,0.156 µM and 0.253 µM
same,TGI,IGROV1 ovarian,3.99 µM and 14 µM
same,GI50,K-562 leukemia,0.129 µM and 0.276 µM
same,GI50,KM12 colon,0.76 µM and 0.471 µM
same,TGI,KM12 colon,8.41 µM and 5.92 µM
same,GI50,LOX IMVI melanoma,0.39 µM
same,TGI,LOX IMVI melanoma,2.35 µM
same,GI50,M14 melanoma,0.517 µM and 0.385 µM
same,TGI,M14 melanoma,25 µM and > 100 µM
same,GI50,MALME-3M melanoma,0.412 µM and 0.431 µM
same,TGI,MALME-3M melanoma,3.45 µM and 15.2 µM
same,GI50,MCF7 breast,0.144 µM and 0.275 µM
same,TGI,MCF7 breast,25 µM and 26.6 µM
same,GI50,MDA-MB-231 breast,0.155 µM and 0.395 µM
same,TGI,MDA-MB-231 breast,10.2 µM and 28.9 µM
same,GI50,MDA-MB-435,0.395 µM and 0.309 µM
same,TGI,MDA-MB-435,25 µM and 10.8 µM
same,GI50,MOLT-4 leukemia,0.432 µM and 0.338 µM
same,TGI,MOLT-4 leukemia,25 µM and > 100 µM
same,GI50,NCI-H226 lung,0.688 µM
same,TGI,NCI-H226 lung,25 µM
same,GI50,NCI-H23 lung,0.577 µM and 0.316 µM
same,TGI,NCI-H23 lung,4.51 µM and 1.46 µM
same,GI50,NCI-H460 lung,1.05 µM and 1.13 µM
same,TGI,NCI-H460 lung,7.05 µM and 11.9 µM
same,GI50,NCI-H522 lung,0.202 µM and 0.312 µM
same,TGI,NCI-H522 lung,2.75 µM and 5.33 µM
same,GI50,NCI/ADR-RES ovarian,0.825 µM and 0.714 µM
same,TGI,NCI/ADR-RES ovarian,25 µM and > 100 µM
same,GI50,OVCAR-3 ovarian,0.24 µM and 0.255 µM
same,TGI,OVCAR-3 ovarian,1.13 µM and 1.29 µM
same,GI50,OVCAR-4 ovarian,0.365 µM and 0.397 µM
same,TGI,OVCAR-4 ovarian,13 µM and > 100 µM
same,GI50,OVCAR-5 ovarian,0.749 µM and 0.826 µM
same,TGI,OVCAR-5 ovarian,25 µM and 21.3 µM
same,GI50,OVCAR-8 ovarian,0.648 µM and 0.449 µM
same,TGI,OVCAR-8 ovarian,25 µM and > 100 µM
same,GI50,PC-3 prostate,0.435 µM and 0.776 µM
same,TGI,PC-3 prostate,25 µM and 16.2 µM
same,GI50,RPMI-8226 leukemia,0.141 µM and 0.234 µM
same,TGI,RPMI-8226 leukemia,2.49 µM and 1.5 µM
same,GI50,RXF 393 renal,0.523 µM and 0.456 µM
same,TGI,RXF 393 renal,3.76 µM and 2.56 µM
same,GI50,SF-268 CNS,1.15 µM and 1.2 µM
same,TGI,SF-268 CNS,19.7 µM and 54.5 µM
same,GI50,SF-295 CNS,1.17 µM and 0.535 µM
same,TGI,SF-295 CNS,25 µM and 12.8 µM
same,GI50,SF-539 CNS,0.15 µM and 0.339 µM
same,TGI,SF-539 CNS,3.74 µM and 7.05 µM
same,GI50,SK-MEL-2 melanoma,1.13 µM and 1.18 µM
same,TGI,SK-MEL-2 melanoma,25 µM and > 100 µM
same,GI50,SK-MEL-28 melanoma,1.07 µM and 1.32 µM
same,TGI,SK-MEL-28 melanoma,9.29 µM and 24.2 µM
same,GI50,SK-MEL-5 melanoma,0.662 µM and 0.348 µM
same,TGI,SK-MEL-5 melanoma,4.01 µM and 1.48 µM
same,GI50,SK-OV-3 ovarian,1.09 µM
same,TGI,SK-OV-3 ovarian,25 µM
same,GI50,SN12C renal,0.464 µM and 0.499 µM
same,TGI,SN12C renal,25 µM and 33.5 µM
same,GI50,SNB-19 CNS,0.644 µM and 0.592 µM
same,TGI,SNB-19 CNS,25 µM and 42.1 µM
same,GI50,SNB-75 CNS,0.0335 µM and 0.161 µM
same,TGI,SNB-75 CNS,25 µM and 18.7 µM
same,GI50,SR leukemia,0.0922 µM and 0.146 µM
same,TGI,SR leukemia,25 µM and > 100 µM
same,GI50,SW-620 colon,0.868 µM and 0.495 µM
same,TGI,SW-620 colon,13.5 µM and 7.85 µM
same,GI50,T-47D breast,0.335 µM
same,TGI,T-47D breast,> 100 µM
same,GI50,TK-10 renal,0.185 µM and 0.402 µM
same,GI50,U251 CNS,0.467 µM and 0.318 µM
same,GI50,UACC-257 melanoma,0.582 µM and 0.672 µM
same,TGI,UACC-257 melanoma,25 µM and 42.8 µM
same,GI50,UACC-62 melanoma,0.137 µM and 0.158 µM
same,GI50,UO-31 renal,0.0951 µM and 0.127 µM
same,TGI,UO-31 renal,3.31 µM and 6.25 µM
